Results reported in patent US20240269292A1.
“Also recorded” adds a separate entry of the source. Non-standard residues stand in square brackets, D forms with d. Residues, ends and D or L forms follow the SMILES beside them. *: point of attachment. Dmt = Cc1cc(O)cc(C)c1C[C@H](N)C(=O)O; X1 = CCCCCCCCCCCCCCCCCCO*

Experiments:
carboxyesterase = assay: In vitro cleavage of the prodrug ester bond by carboxyesterase (HPLC); assay type: in vitro ADME; details: 37° C. in vitro, carboxyesterase 0.1 μg/mL
Description: One example of an EY005-prodrug includes EY005-stearyl (FIG. 16A), wherein EY005 is linked via ester bond to stearyl alcohol, one member from the group of long-chain saturated fatty alcohols. On cleavage of the ester bond, the prodrug EY005-stearyl releases the EY005 MTT. […] Upon addition of EY005-stearyl prodrug to phosphate-buffered saline solution at 37° C. without esterase, the ester bond of the EY005-stearyl prodrug cleaves more slowly (˜36 hours) by hydrolysis (FIGS. 17A and 17C).
EY005-stearyl was incubated at 37° C. in vitro with carboxyesterase (0.1 μg/mL), to simulate the ocular physiologic environment and the type of esterase that is readily abundant within the vitreous. […] Upon addition of EY005-stearyl prodrug to phosphate-buffered saline solution at 37° C. without esterase, the ester bond of the EY005-stearyl prodrug cleaves more slowly by hydrolysis (FIG. 17C).
FIG. 18 illustrates theoretical data from an in vitro esterase assay showing rapid ester cleavage of two different EY005 prodrugs upon exposure to the esterase.
One specific example of EY005-prodrug includes EY005-stearyl (depicted in FIG. 16A), wherein EY005 is linked via ester bond to stearyl alcohol, one member from the group of long-chain saturated fatty alcohols. On cleavage of the ester bond, the prodrug EY005-stearyl releases the EY005 MTT. […]

[1] = Complexation of EY005-stearyl with complexation agent in methyl laurate, HPLC of pulled-down particulates and medium; assay type: physicochemical; details: 1 hour
Description: As described herein, formation of drug-complex particulates in which the complexation agent has high avidity for the drug can be quantified and verified experimentally. For example, the MTT-prodrug EY005-stearyl was admixed with known quantities of selected individual complexation agents. The EY005-stearyl-complexation agent mixture was then added to an appropriate dispersal medium (in this case, methyl laurate), and centrifuged to “pull down” or separate EY005-stearyl bound to complexation agent from unbound prodrug present in the dispersal medium. HPLC analysis of pulled down particulates and dispersal medium from EY005-stearyl content determined the fraction of MTT-prodrug that is bound to the complexation agent and calculation of the Kd value, the unbound to bound coefficient, for the MTT-prodrug/complexation agent pair. Using this type of assay, Kd values can be generated to identify the unbound to bound drug ratio for specific MTT-prodrug/complexation agent pairs in a selected dispersal medium (see, e.g., Table 2, below).
As described herein, formation of drug-complex particulates in which the complexation agent has high avidity for the drug can be quantified and verified experimentally. For example, the MTT-prodrug EY005-stearyl was admixed with known quantities of selected individual complexation agents. […] HPLC analysis of pulled down particulates and dispersal medium from EY005-stearyl content determined the fraction of MTT-prodrug that is bound to the complexation agent (binding capacity) and calculation of the Kd value, the unbound to bound coefficient, for the MTT-prodrug/complexation agent pair. […]
Table 2 illustrates an example of a EY005-stearyl prodrug solubilized in methyl laurate in which various complexation agents were added, mixed, and incubated for 1 hour. The quantity of EY005-stearyl prodrug complexed with each complexation agent was determined by HPLC. Kd values were calculated as [unbound]/[bound] fraction prodrug under each condition. Binding capacity was calculated as the μg EY005-stearyl complexed per mg complexation agent.

Albumin = Albumin (Homo sapiens, UniProt P02768); assay: as above; assay type: binding; details: 1 hour
Description: As described herein, formation of drug-complex particulates in which the complexation agent has high avidity for the drug can be quantified and verified experimentally. For example, the MTT-prodrug EY005-stearyl was admixed with known quantities of selected individual complexation agents. The EY005-stearyl-complexation agent mixture was then added to an appropriate dispersal medium (in this case, methyl laurate), and centrifuged to “pull down” or separate EY005-stearyl bound to complexation agent from unbound prodrug present in the dispersal medium. HPLC analysis of pulled down particulates and dispersal medium from EY005-stearyl content determined the fraction of MTT-prodrug that is bound to the complexation agent and calculation of the Kd value, the unbound to bound coefficient, for the MTT-prodrug/complexation agent pair. […]
As described herein, formation of drug-complex particulates in which the complexation agent has high avidity for the drug can be quantified and verified experimentally. For example, the MTT-prodrug EY005-stearyl was admixed with known quantities of selected individual complexation agents. […]
Table 2 illustrates an example of a EY005-stearyl prodrug solubilized in methyl laurate in which various complexation agents were added, mixed, and incubated for 1 hour. The quantity of EY005-stearyl prodrug complexed with each complexation agent was determined by HPLC. […]

[2] = system: retinal pigment epithelium (RPE) cells; assay: HQ-induced mitochondrial dysfunction in RPE cells (flavoprotein autofluorescence); assay type: cell-based; details: HQ-exposed RPE cells, versus elamipretide or native EY005
Description: (§1) Cells are then treated with drug (or control phosphate-buffered saline (PBS) solution) and assayed for effects on mitochondrial dysfunction and other cellular changes.
(§2) Mitochondrial dysfunction can be modeled using in vitro cell culture systems relevant to retinal disease. In one such system, retinal pigment epithelium (RPE) cells are cultured to post-confluence to establish a differentiated cell monolayer and are then assayed for mitochondrial dysfunction and effect of drugs for treatment of mitochondrial dysfunction (FIG. 5). In this model, mitochondrial dysfunction is induced by two exposures to nonlethal doses of hydroquinone (HQ) at day −3 and day 0. Hydroquinone (HQ), a well-known environmental toxicant ubiquitously present in Western lifestyle, is a biochemical inducer of mitochondrial dysfunction. […] Cells are then treated with a drug of interest (mitochondrial targeted peptide drug or a prodrug thereof) or control (phosphate-buffered saline (PBS) solution and assayed for effects on mitochondrial dysfunction, as measured by microscopy of flavoprotein autofluorescence (a measure of mitochondrial electron transport chain complex II decompensation) (FIG. 6).

[3] = system: retinal pigment epithelium (RPE) cells; assay: Actin cytoskeleton disorganization (phalloidin) in HQ-exposed RPE cells; assay type: cell-based; details: 5 μM
Description: as §1, §2

[4] = Accelerated in vitro release assay, methyl laurate dispersal medium; assay type: physicochemical
From the text: In all cases, all EY005 was rapidly released, in some cases within hours, and in all cases by day 3.

[5] = Release assay of two formulations of EY005 prodrugs in the extended release system; assay type: physicochemical
From the text: FIG. 36 illustrates data from a release assay of two representative formulations of EY005 prodrugs in the extended-release drug delivery system, with different durations of release.
For example, FIG. 36 illustrates release kinetics for examples of two distinct formulations of EY005 prodrugs in the complexation-based XRDDS, each with different conjugation moieties, as described herein: EY005-octadecyl (formulation 1) and EY005-8-mer peptide (formulation 2).

[6] = Hydrophobicity and aqueous solubility; assay type: physicochemical
[7] = system: sub-RPE deposits and visual function; assay: APOE4 + high fat diet (HFD) mouse model of dry AMD; assay type: in vivo; details: 3 mg/kg subcutaneous
Description: For example, FIG. 2A illustrates the reversal of pre-existing RPE mitochondrial dysfunction and sub-RPE deposits in an ApoE4 mouse model by high-dose elamipretide administered systemically by subcutaneous (SQ) administration (3 mg/kg […]). Aged ApoE4 mice fed a high-fat diet (HFD) develop sub-RPE deposits that reflect the pathobiology of subRPE drusen in patients with dry AMD. ApoE4 mice were treated with elamipretide (n=5; 3 mg/kg SQ daily) or vehicle (n=5) for 4 weeks, continuing HFD from prior 3 mos. […] These untreated mice had thick, severe deposits.

[8] = Ocular tissue levels of elamipretide in rabbits after subcutaneous or intravitreal administration; assay type: in vivo, rabbit
Description: For example, maximal systemic dosing of elamipretide is 40 mg daily delivered by subcutaneous route of administration, or approximately […]. […] Meanwhile, peak retina levels following intravitreal injection of 15 μg elamipretide is ˜15 μM. Thus, retinal bioavailability of mitochondrial-targeted peptides following systemic administration of a maximally tolerated dose is suboptimal as compared to intravitreal administration. […] The drug clears from the eye in just a few days, and once a week intravitreal injection in humans is not practical or feasible for treatment of disease in clinical practice. Thus, an extended release drug delivery system is essential to achieve sustained, high levels of drug within the vitreous, retina, and RPE.
Systemic delivery of mitochondrial targeted tetrapeptides by SQ injection have suboptimal efficacy in human patients due to insufficient retinal bioavailability. Sufficient levels of the mitochondrial-targeted tetrapeptides cannot be achieved at the target tissue site (i.e., retina). For example, in humans, maximal dosing is 40 mg SQ (˜0.3-0.9 mg/kg), a dose that is limited by SQ injection site toxicity (FIG. 3). In mice, effective dosing required 3 mg/kg, which is 3-10 fold greater than the mass-adjusted dose in humans. Peak plasma levels are also limited by the drug's rapid blood clearance, and the blood-eye barrier may also impede retinal penetration. […] Thus, higher retinal and choroidal drug levels with continuous drug exposure are desirable.

patients with dry AMD [9] = assay: ReCLAIM clinical trial in patients with dry AMD; assay type: in vivo, human; details: subcutaneous daily (40 mg)
Description: FIG. 3 illustrates summary results of the ReCLAIM study, a phase 1/2 clinical trial of systemically administered (40 mg subcutaneous daily) elamipretide in two cohorts of patients with dry AMD: 1) noncentral geographic atrophy (GA) and 2) high-risk drusen.

[10] = system: retinal pigment epithelium (RPE) cells; details: preclinical in vitro models of dry AMD; cited from earlier work
[11] = human, SQ; cited from earlier work
patients with dry AMD [12] = details: subcutaneous, once daily; limited by local injection site reactions; cited from earlier work

Chain of Albumin (P02768 25-609, species assumed): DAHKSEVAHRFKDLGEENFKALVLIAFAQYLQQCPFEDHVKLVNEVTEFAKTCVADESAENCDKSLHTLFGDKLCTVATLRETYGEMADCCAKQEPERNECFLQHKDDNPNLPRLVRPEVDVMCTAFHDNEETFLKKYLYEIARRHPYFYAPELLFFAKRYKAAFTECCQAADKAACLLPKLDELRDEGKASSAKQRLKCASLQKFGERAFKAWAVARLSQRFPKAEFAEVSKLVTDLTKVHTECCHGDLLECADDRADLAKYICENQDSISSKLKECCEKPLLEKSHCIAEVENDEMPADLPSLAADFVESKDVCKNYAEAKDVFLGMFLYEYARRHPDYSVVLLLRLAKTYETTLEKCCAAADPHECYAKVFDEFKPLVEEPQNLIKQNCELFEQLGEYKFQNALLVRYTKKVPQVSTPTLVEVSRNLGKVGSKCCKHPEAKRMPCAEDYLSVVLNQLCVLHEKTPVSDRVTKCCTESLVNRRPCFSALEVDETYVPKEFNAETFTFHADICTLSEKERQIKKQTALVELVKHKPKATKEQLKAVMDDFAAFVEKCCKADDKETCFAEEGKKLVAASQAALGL

CCCCCCCCCCCCCCCCCCOC(=O)[C@H](Cc1ccccc1)NC(=O)[C@H](CCCCN)NC(=O)[C@H](Cc1c(C)cc(O)cc1C)NC(=O)[C@H](N)CCCNC(=N)N [EY005-stearyl, H-d-Arg-DMT-Lys-Phe(-O)-octadecyl] (H-[dR][Dmt]KF-X1)
cleavage of the prodrug ester bond, releasing EY005 (carboxyesterase): rapid cleavage of the prodrug ester bond
μg EY005-stearyl complexed per mg complexation agent ([1]; Cyclodextrin gamma): 2.3 μg per mg
μg EY005-stearyl complexed per mg complexation agent ([1]; Lecithin): 9.5 μg per mg
μg EY005-stearyl complexed per mg complexation agent ([1]; Silica microbeads): 0.2 μg per mg
μg EY005-stearyl complexed per mg complexation agent (Albumin): 4.5 μg per mg
Potency for reversal of mitochondrial dysfunction relative to comparator [2]: efficacy equivalent to treatment with EY005 native peptide
Reversal of actin cytoskeleton disorganization [3]: normalized actin cytoskeleton dysfunction
Release rate of EY005 ([4]; magnesium stearate and albumin together): intermediate between that of formulations using either complexation agent alone
Release of EY005 into media ([4]; no complexation agent): rapid release
Release of EY005 into media ([4]; silica microbeads): rapid release
Release kinetics profile ([5]; FIG. 36): longer initial early burst
Durability of release ([5]; two-phase kinetics): 120 days
Hydrophobicity [6]: hydrophobic

Cc1cc(O)cc(C)c1C[C@H](NC(=O)[C@H](N)CCCNC(=N)N)C(=O)N[C@@H](CCCCN)C(=O)N[C@@H](Cc1ccccc1)C(N)=O [elamipretide, H-d-Arg-Dmt-Lys-Phe-NH2] (H-[dR][Dmt]KF-NH2)
visual function (ERG B-wave amplitudes) [7]: increased B-wave amplitudes; also recorded: partially improved visual function
peak retina levels following intravitreal injection ([8]; intravitreal injection of 15 μg): ~15 µM
choroid levels after 4 hours ([8]; rabbit, subcutaneous 1 mg/kg): undetectable
drug in the retina after subcutaneous administration ([8]; rabbit, subcutaneous 1 mg/kg): no drug is detected in the retina
peak choroid levels at 1 hour ([8]; rabbit, subcutaneous 1 mg/kg): ~50 nM
Low-luminance visual acuity / visual function (patients with dry AMD [9]): general mean trend toward improvement in multiple metrics of visual function
Aqueous solubility ([6]; native form): high aqueous solubility
Reversal of mitochondrial dysfunction in RPE cell culture [10]: potent for reversal of mitochondrial dysfunction
Dose-limiting toxicity [11]: local injection site reactions
maximally tolerated dose in humans (patients with dry AMD [12]): 40 mg
